Measurements taken from ChEMBL document CHEMBL1201862, “PubChem BioAssay data set” (2004).
Activity calls are given as the source filed them.

How the values were obtained:
[1] = biological target: T1, Heat shock factor protein 1 (Mus musculus, UniProt P38532); assay: inhibition of MG132-induced HSE-luciferase signal, confirmation, cell-based, NIH3T3, luminescence, dose retest (AID 2382); type: functional;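 also: NIH3T3 fibroblasts with HSF1-driven luciferase reporter stressed by proteasome inhibitor MG132; luminescence from HSF1-driven luciferase expression after 8 hours of MG132 stress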
T1 sequence (P38532 whole entry): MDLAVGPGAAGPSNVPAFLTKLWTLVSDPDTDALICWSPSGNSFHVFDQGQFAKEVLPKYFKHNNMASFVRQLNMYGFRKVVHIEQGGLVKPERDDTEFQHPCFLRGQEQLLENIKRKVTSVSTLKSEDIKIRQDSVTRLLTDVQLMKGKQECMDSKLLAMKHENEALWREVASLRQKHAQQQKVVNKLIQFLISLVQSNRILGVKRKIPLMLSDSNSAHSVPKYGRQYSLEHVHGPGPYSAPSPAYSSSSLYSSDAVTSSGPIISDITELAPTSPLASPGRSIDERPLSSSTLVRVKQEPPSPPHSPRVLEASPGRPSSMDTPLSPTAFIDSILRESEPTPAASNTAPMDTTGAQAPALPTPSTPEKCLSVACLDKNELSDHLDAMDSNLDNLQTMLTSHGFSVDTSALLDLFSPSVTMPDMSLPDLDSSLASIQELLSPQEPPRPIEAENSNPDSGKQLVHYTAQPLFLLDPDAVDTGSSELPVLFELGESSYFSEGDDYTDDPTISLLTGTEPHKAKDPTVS

Cytochrome P450 2C9 = Cytochrome P450 2C9 (Homo sapiens, UniProt P11712)
[2] = system: Streptococcus sp. 'group A'; assay: growth inhibition of control SK(-) GAS strain, dose response, counter-screen for streptokinase expression inhibitor project, luminescence, kanamycin, BacTiterGlo, confirmation (AID 1900); type: functional, organism-based
Streptokinase A = biological target: T2, Streptokinase A (Streptococcus pyogenes serotype M1, UniProt P10520); assay: S. pyogenes streptokinase expression inhibitors, potency, dose response, plasminogen activation absorbance, OD405 (AID 1914); type: functional, Streptococcus pyogenes M1 GAS;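 also: secreted streptokinase activity via plasminogen activation per viability signal from cell pellet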
T2 sequence (P10520 whole entry): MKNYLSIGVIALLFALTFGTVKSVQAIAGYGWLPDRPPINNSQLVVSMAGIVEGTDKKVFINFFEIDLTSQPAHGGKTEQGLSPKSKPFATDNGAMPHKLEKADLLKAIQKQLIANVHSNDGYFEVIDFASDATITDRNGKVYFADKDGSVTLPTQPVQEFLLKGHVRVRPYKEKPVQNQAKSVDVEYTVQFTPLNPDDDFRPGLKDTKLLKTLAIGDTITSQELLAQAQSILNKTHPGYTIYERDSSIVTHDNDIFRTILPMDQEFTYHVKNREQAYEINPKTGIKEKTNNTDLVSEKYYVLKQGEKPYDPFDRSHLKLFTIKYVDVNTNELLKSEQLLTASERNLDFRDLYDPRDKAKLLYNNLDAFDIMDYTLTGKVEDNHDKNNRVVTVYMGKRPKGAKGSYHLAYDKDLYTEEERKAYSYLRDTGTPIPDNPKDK

Streptococcus = assay: Group A Streptococcus viability loss, dose response, counter-screen for streptokinase expression inhibitor project, luminescence, BacTiterGlo (AID 1915); type: functional, organism-based;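 also: potency for reduction of bacterial viability or growth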
Cytochrome P450 2C19 = Cytochrome P450 2C19 (Homo sapiens, UniProt P33261); assay: Cytochrome panel assay with activity outcomes. Panel member name: p450-cyp2c19 Compounds with AC50 equal or less than 10 uM are considered active; type: functional
[3] = inhibitors of intracellular T. cruzi replication, confirmation, NIH3T3 host cells, beta-gal luminescence (AID 2044); type: functional, cell-based;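 also: intracellular parasites grown in NIH/3T3 mouse fibroblasts as host cells; luminescent beta-galactosidase reporter signal from transgenic T. cruzi replicating inside host cells; inhibitors lower the luminescence signal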
[4] = cytotoxicity toward NIH3T3 fibroblasts, dose response, counter-screen, cell-based, ATP luminescence, mouse fibroblasts (AID 2010); type: functional;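 also: cells exposed to compound for about 90 hours before reading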

Chain of Cytochrome P450 2C19 (P33261 whole entry): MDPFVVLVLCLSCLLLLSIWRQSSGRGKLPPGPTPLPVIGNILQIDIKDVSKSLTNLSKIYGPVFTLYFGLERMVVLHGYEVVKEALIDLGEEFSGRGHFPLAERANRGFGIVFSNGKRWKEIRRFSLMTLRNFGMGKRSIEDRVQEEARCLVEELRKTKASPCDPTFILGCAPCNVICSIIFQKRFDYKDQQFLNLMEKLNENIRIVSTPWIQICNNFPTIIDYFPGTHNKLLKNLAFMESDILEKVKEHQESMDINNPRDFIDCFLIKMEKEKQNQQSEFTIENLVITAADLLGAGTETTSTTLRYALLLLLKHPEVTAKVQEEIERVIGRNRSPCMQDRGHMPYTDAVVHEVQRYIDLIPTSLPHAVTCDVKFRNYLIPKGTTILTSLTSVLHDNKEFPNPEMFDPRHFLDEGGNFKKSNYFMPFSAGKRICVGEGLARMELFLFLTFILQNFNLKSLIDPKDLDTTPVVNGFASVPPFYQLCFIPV
Chain of Cytochrome P450 2C9 (P11712 whole entry): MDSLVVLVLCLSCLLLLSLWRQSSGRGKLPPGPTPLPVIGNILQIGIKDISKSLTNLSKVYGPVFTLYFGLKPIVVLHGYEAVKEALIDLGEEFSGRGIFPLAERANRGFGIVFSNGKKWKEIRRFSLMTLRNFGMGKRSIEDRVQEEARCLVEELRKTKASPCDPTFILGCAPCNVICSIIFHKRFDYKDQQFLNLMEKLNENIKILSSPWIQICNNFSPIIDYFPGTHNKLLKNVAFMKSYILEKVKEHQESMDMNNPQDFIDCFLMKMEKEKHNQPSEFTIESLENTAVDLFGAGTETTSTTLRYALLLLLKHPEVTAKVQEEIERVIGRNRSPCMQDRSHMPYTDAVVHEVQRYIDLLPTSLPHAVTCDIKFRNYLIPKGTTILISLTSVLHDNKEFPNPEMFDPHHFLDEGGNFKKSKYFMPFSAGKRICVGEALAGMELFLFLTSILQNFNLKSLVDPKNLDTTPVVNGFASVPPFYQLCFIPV

## CCOC(=O)c1cccc(NC(=O)C2CCN(c3ncnc4c3nc3n4CCCCC3)CC2)c1
[1]
  EC50: > 195 µM (not active)

## O=C(c1cnccn1)N1CCC2(CC1)CN(Cc1ccncc1)C2
Cytochrome P450 2C9
  AC50: 31.6 µM (inconclusive)

## CC(=O)Oc1ccc2c(c1)CC[C@@H]1[C@@H]2CC[C@]2(C)[C@@H](O)CC[C@@H]12 [ESTRADIOL ACETATE]
[1]
  EC50: > 195 µM (not active)

## Cc1ccc(CN2C(=O)CCC2C(=O)NCc2cccnc2)cc1 (stereo unspecified)
Cytochrome P450 2C9
  AC50: 28.2 µM (inconclusive)

## CCCCCC(=O)NNC(=O)c1c(O)c2ccccc2n(CC)c1=O
[2]
  EC50: 7.72 µM (active)
Streptokinase A
  EC50: > 50 µM (not active)
Streptococcus
  EC50: 19.1 µM (active)

## C=CCO/C(O)=C1\C(C)=NC(SCC)=C(C#N)C1c1ccc(Cl)cc1 (stereo unspecified)
[2]
  EC50: 4.9 µM (active)
Streptokinase A
  EC50: 8.34 µM (active)
Streptococcus
  EC50: 17.6 µM (active)

## C[C@@H](CCCCC(=O)Nc1ccc(C(F)(F)F)cc1)NCCc1c[nH]cn1
Cytochrome P450 2C19; read-out: AC50
  AC50: 15.8 µM (inconclusive)

## CCOc1nn(-c2ccc(Cl)cc2)c(O)c1/C=N/c1ccc(Cl)cc1
Cytochrome P450 2C9
  AC50: 12.6 µM (inconclusive)

## CN1CCN(C(=O)c2ccc3c(=O)n4c(nc3c2)CCCCC4)CC1
Cytochrome P450 2C19; read-out: AC50
  AC50: 10 µM (inconclusive)

## Oc1cc(CN2COc3ccccc32)c(O)cc1CNC1CCCCC1
Cytochrome P450 2C9
  AC50: 6.31 µM (inconclusive)
Cytochrome P450 2C19; read-out: AC50
  AC50: 1.26 µM (inconclusive)

## c1ccc(C(NCCNC(c2ccccc2)c2ccccc2)c2ccccc2)cc1
[2]
  EC50: 1.51 µM (active)
Streptokinase A
  EC50: 12 µM (active)
Streptococcus
  EC50: 20.8 µM (active)

## COc1ccc2nc(/N=C\N(C)C)sc2c1
Cytochrome P450 2C9
  AC50: 0.00562 µM (inconclusive)
Cytochrome P450 2C19; read-out: AC50
  AC50: 22.4 µM (inconclusive)

## CN(C)C(=O)CSc1nnc(O)nc1O
[1]
  EC50: > 195 µM (not active)

## N#Cc1cccc(-c2cc(NCc3cccnc3)ncn2)c1
Cytochrome P450 2C19; read-out: AC50
  AC50: 15.8 µM (inconclusive)

## COCCOC(=O)C1=C(C)N=C(C)/C(=C(/O)OC(C)C)C1c1cccc([N+](=O)[O-])c1 (stereo unspecified)
[3]
  EC50: 1.31 µM (active)
[4]
  EC50: > 60 µM (not active)

## C[C@]12CC[C@@H]3C(=CCc4cc(O)ccc43)[C@@H]1CCC2=O
Cytochrome P450 2C19; read-out: AC50
  AC50: 7.94 µM (inconclusive)

## CCS(=O)(=O)c1nc(S(=O)(=O)c2ccc(C)cc2)c(NCCN2CCOCC2)s1
[2]
  EC50: > 150 µM (not active)
Streptokinase A
  EC50: > 150 µM (not active)
Streptococcus
  EC50: > 150 µM (not active)

## COC(=O)[C@H](Cc1ccccc1)NC(=O)[C@@H](C)CO
Cytochrome P450 2C9
  AC50: 3.98 µM (inconclusive)

## O=C(O)CCC(=O)N1CCc2cc(S(=O)(=O)NCc3cccs3)ccc21
Cytochrome P450 2C9
  AC50: 31.6 µM (inconclusive)
Cytochrome P450 2C19; read-out: AC50
  AC50: 25.1 µM (inconclusive)

## CCN(CC)CCCSc1nc2ccccc2s1
[3]
  EC50: 0.445 µM (active)
[4]
  EC50: > 30 µM (not active)

## CCCCN(C)CC(O)Cn1cc(/C=C/C(=O)c2ccc(OCC)cc2)c2ccccc21 (stereo unspecified)
[3]
  EC50: 0.154 µM (active)
[4]
  EC50: 6.17 µM (active)

## CNC(=O)C(=O)NCC1OCCN1S(=O)(=O)c1ccc(OC)c(OC)c1 (stereo unspecified)
[2]
  EC50: > 150 µM (not active)
Streptokinase A
  EC50: > 150 µM (not active)
Streptococcus
  EC50: > 150 µM (not active)

## NS(=O)(=O)c1ccc(/N=N\c2ccc(O)c(C(=O)O)c2)cc1
Cytochrome P450 2C9
  AC50: 1 µM (inconclusive)

## O=S(=O)(CCc1nc2ccccc2[nH]1)c1ccc(Cl)cc1
[1]
  EC50: > 195 µM (not active)

## CC1=NN(C(N)=S)C(=O)C1N=Nc1c(C)cc(C)cc1C (stereo unspecified)
[2]
  EC50: 5.14 µM (active)
Streptokinase A
  EC50: > 150 µM (not active)
Streptococcus
  EC50: > 150 µM (not active)

## CCN(CC)c1ccc(CNc2nc3ccccc3n2CCN2CCOCC2)cc1
[1]
  EC50: > 195 µM (not active)

## CC(=O)OCC1=C(C(=O)O)N2C(=O)C(NC(=O)Cn3nc(C(F)F)c(Cl)c3C)C2SC1 (stereo unspecified)
[2]
  EC50: < 0.06 µM (active)
Streptococcus
  EC50: 0.111 µM (active)

## Cc1[nH]c2ccccc2c1/C=C/c1nc2ccccc2c(=O)n1-c1cccc([N+](=O)[O-])c1
[1]
  EC50: > 195 µM (not active)

## COC(=O)c1cc(C(=O)Nc2ccc(S(=O)(=O)NC(C)(C)C)cc2)cc([N+](=O)[O-])c1
[3]
  EC50: 0.797 µM (active)
[4]
  EC50: > 60 µM (inconclusive)

## CCOc1ccc(-n2c(SCc3nc(-c4cccs4)no3)nnc2-c2ccncc2)cc1
[3]
  EC50: 1.25 µM (active)
[4]
  EC50: > 60 µM (not active)

## COc1ccc(OC)c(NC(=O)NCc2cccnc2)c1
[2]
  EC50: > 150 µM (not active)
Streptokinase A
  EC50: > 150 µM (not active)
Streptococcus
  EC50: > 150 µM (not active)

## COc1ccc(C(=O)C2CCCN(Cc3cnc(N4CCOCC4)s3)C2)c(OC)c1 (stereo unspecified)
[3]
  EC50: 0.991 µM (active)
[4]
  EC50: > 60 µM (not active)

## CCOc1ccc(-n2c(C)cc(/C=C3/C(=N)N4C(=NC3=O)SN=C4S(C)(=O)=O)c2C)cc1
[2]
  EC50: 0.599 µM (active)
Streptokinase A
  EC50: > 150 µM (not active)
Streptococcus
  EC50: 17.5 µM (active)

## COc1ccc(C(=O)N2CCC3(CCN(Cc4ccncc4)CC3)CC2)cc1
Cytochrome P450 2C9
  AC50: 7.94 µM (inconclusive)

## O=C(Nc1cc(Sc2ccccn2)cc([N+](=O)[O-])c1)c1cccc(Cl)c1
[3]
  EC50: 0.625 µM (active)
[4]
  EC50: > 60 µM (not active)

## Cc1ccc(NC(=O)C2CCN(S(C)(=O)=O)CC2)cc1
Cytochrome P450 2C19; read-out: AC50
  AC50: 20 µM (inconclusive)

## Cn1ncc(Cl)c1C(=O)N1CCC2(CC1)OCCO2
[2]
  EC50: > 150 µM (not active)
Streptokinase A
  EC50: > 150 µM (not active)
Streptococcus
  EC50: > 150 µM (not active)

## COc1ccc(O[C@H]2C=C[C@@H](c3ccccc3)O[C@H]2COC(=O)CC/C(C)=N\O[C@@H](C)c2cc(-c3c(C)cc(C)cc3C)no2)cc1
Cytochrome P450 2C9
  AC50: 1.58 µM (inconclusive)

## CCOc1cccc(N(C(=O)c2ccco2)C(C(=O)NC2CCCC2)c2cccnc2)c1 (stereo unspecified)
[2]
  EC50: > 150 µM (not active)
Streptokinase A
  EC50: > 150 µM (not active)
Streptococcus
  EC50: > 150 µM (not active)

## CCOC(=O)n1c(SCC(N)=O)nc2ccccc21
[1]
  EC50: > 195 µM (not active)

## COc1ccc(-c2cc3nc(C)c(CCC(=O)NCc4ccc(F)cc4)c(C)n3n2)c(OC)c1
[3]
  EC50: 1.33 µM (active)
[4]
  EC50: > 60 µM (inconclusive)

## Cc1cc(C)n(-c2cc(N3CCN(S(=O)(=O)c4ccc(C)c(C)c4)CC3)ccc2[N+](=O)[O-])n1
Cytochrome P450 2C9
  AC50: 2.24 µM (inconclusive)

## Clc1ccc(/C=N/N=C(/Nc2ccccc2)c2ccccn2)c(Cl)c1
[2]
  EC50: 10.9 µM (active)
Streptokinase A
  EC50: > 150 µM (not active)
Streptococcus
  EC50: 30.2 µM (active)

## CN1C(C(=O)Nc2ccc(OC(F)(F)F)cc2)=CC(c2cccs2)=NS1(=O)=O
[1]
  EC50: 62.2 µM (active)

## O=C(CCc1nc(-c2cccs2)no1)NCc1ccc(F)cc1Cl
[1]
  EC50: > 195 µM (not active)

## CCOc1ccc(CCNC(=O)c2cc(-c3ccccc3)c(N3CCOCC3)s2)cc1
[3]
  EC50: 1.45 µM (active)
[4]
  EC50: > 60 µM (not active)

## O=C(C1CCC(CNS(=O)(=O)c2cccc3cccnc23)CC1)N1CCCC1 (stereo unspecified)
[1]
  EC50: > 195 µM (not active)

## O=C(O)CSc1ccn(Cc2ccccc2)c1
Cytochrome P450 2C19
  AC50: inconclusive

## CCn1cnc2c1c(=O)n(CC(=O)Nc1cc(C)on1)c(=O)n2Cc1ccccc1
[2]
  EC50: > 150 µM (not active)
Streptokinase A
  EC50: > 150 µM (not active)
Streptococcus
  EC50: > 150 µM (not active)

## Clc1ccc(COn2c(-c3ccc(Cl)cc3)nc3ccccc32)cc1
[2]
  EC50: 8.35 µM (active)
Streptokinase A
  EC50: > 50 µM (not active)
Streptococcus
  EC50: 10.8 µM (active)

## CCC(=O)n1nc(-c2cccnc2)nc1NCc1cccs1
[1]
  EC50: > 195 µM (not active)

## Cc1cccc(C(=O)NC2CCN(C(=O)N3CCOCC3)CC2)c1
Cytochrome P450 2C19; read-out: AC50
  AC50: 31.6 µM (inconclusive)
